22 compounds from patent publication US20250368624A1, “M24B AMINOPEPTIDASE INHIBITORS FOR CARD8 INFLAMMASOME ACTIVATION” (Memorial Sloan-Kettering Cancer Center, priority 2022, published 2025) can be followed below.

The target of one experiment is XPNPEP1 (Homo sapiens (Human), UniProt Q9NQW7). The experiment is described as follows: XPNPEP1 substrate assay (H-Lys(abz)-Pro-Pro-pNA). Conditions: XPNPEP1 3.5 nM, substrate 100 μM, 60 mins. The format is biochemical. As for the experimental part: Protein purification. Human prolidase (PEPD) was generated and purified. XPNPEP1 in pET15-b containing a 6× His tag was expressed in E. coli Rosetta DE3 cells. Cells were induced with IPTG for 16 h at 37° C., pelleted and lysed in buffer A (20 mM Tris-HCl (pH 7.9), 500 mM NaCl, and 10% (v/v) glycerol) by sonication. Affinity purification chromatography was performed using TALON resin and according to previously published protocols (Li et al., 2008).
Chain of XPNPEP1 (Q9NQW7 whole entry): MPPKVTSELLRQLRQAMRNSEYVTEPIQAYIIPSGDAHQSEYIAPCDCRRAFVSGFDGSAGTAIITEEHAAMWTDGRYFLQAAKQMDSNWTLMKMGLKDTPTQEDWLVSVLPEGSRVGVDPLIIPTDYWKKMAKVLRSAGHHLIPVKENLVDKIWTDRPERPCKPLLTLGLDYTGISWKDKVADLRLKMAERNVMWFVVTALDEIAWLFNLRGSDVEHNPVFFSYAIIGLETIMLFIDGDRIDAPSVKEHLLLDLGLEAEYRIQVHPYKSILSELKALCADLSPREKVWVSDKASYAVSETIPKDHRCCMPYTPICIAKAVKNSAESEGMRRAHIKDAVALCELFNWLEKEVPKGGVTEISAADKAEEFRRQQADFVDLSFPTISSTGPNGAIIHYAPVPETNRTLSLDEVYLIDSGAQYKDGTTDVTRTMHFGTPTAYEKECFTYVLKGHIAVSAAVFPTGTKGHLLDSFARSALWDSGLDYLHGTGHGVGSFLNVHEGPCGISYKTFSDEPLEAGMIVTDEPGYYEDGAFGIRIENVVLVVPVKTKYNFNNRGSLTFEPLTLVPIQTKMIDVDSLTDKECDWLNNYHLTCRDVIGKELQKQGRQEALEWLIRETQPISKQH
(§1) Substrate assays. For the PEPD assay, a solution of substrate (Ala-Pro) was prepared in DMSO. 24 μL of 50 nM recombinant human PEPD were added to a 384-well, black, clear-bottom plate (Corning) with 1 μL dipeptide Ala-Pro (final conc. 40 μM). Alanine liberated was measured as increasing fluorescence signal (Resorufin, Ex/Em: 535/587 nm) recorded at 25° C. using an L-alanine assay kit (Abcam, ab83394) at 25° C. according to manufacturer's instructions. For the AMC reporter assays, experiments were performed with cell lysates. 5 μL solution of substrate (2.5 mM Ala-AMC) was added the mixture of 10 μL HEK293T cell lysates (2.5 mg/ml) and 10 μL of indicated compounds in a 384-well, black, clear-bottom plate (Corning) to initiate the reaction. Substrate cleavage was measured as increasing fluorescence signal (Ex/Em: 380/460 nm) recorded at 25° C. for 20 mins. For XPNPEP1 enzymes (XPNPEP1 3.5 nM) were plated on a black 384-well clear bottom plate and treated with the indicated doses of compounds. H-Lys(abz)-Pro-Pro-pNA substrate was added to a final concentration of 100 μM, and fluorescence was monitored (Ex/Em: 320/410) for 60 mins.

In a further experiment the target is recombinant human PEPD (Homo sapiens (Human), UniProt P12955). In words: PEPD substrate assay (Ala-Pro cleavage, L-alanine assay kit). The experiment is classed as biochemical. Conditions: 50 nM recombinant human PEPD, Ala-Pro 40 μM, 25° C. The protocol: Protein purification. Human prolidase (PEPD) was generated and purified. XPNPEP1 in pET15-b containing a 6× His tag was expressed in E. coli Rosetta DE3 cells.
Chain of recombinant human PEPD (P12955 whole entry): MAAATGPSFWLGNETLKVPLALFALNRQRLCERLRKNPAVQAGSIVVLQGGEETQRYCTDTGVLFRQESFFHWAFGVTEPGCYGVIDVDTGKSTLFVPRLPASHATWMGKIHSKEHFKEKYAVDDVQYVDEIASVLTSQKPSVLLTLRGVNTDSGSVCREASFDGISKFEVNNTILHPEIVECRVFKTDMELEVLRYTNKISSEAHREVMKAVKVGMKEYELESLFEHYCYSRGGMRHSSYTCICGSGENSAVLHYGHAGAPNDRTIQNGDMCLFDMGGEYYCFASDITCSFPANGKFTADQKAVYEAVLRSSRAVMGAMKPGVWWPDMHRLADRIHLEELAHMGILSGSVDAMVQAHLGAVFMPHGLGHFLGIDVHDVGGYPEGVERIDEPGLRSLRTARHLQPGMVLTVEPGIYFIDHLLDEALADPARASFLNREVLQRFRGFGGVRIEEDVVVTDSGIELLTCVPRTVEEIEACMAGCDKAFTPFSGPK
as §1, with “Alanine liberated was measured as increasing fluorescence signal (Resorufin, Ex/Em: 535/587 nm) recorded at 25° C. using an L-alanine assay kit (Abcam, ab83394) at 25° C. according to manufacturer's instructions.” left out, “For XPNPEP1 enzymes (XPNPEP1 3.5 nM) were plated on a black 384-well clear bottom plate and treated with the indicated doses of compounds.” left out

One may read the IC50 as the concentration that inhibits the measured activity by half. Turning to `COC(=O)[C@@H]1CCCN1C(=O)[C@@H](O)[C@H](N)c1ccccc1` [CQ64, Methyl ((2S,3R)-3-amino-2-hydroxy-3-phenylpropanoyl)-L-prolinate], the figures for the half-maximal inhibitory concentration (IC50) against XPNPEP1 and on recombinant human PEPD were 203 µM and 2.8 µM, respectively.

Regarding `COC(=O)[C@@H]1CCCN1C(=O)[C@@H](O)[C@H](N)CC(C)(C)C` [CQ45, Methyl ((2S,3R)-3-amino-2-hydroxy-5,5-dimethylhexanoyl)-L-prolinate], the IC50 against XPNPEP1 came to 57 µM; on recombinant human PEPD, 1.5 µM.

For `COC(=O)[C@@H]1CCCN1C(=O)[C@@H](O)[C@H](N)c1cccs1` [CQ70, Methyl ((2S,3S)-3-amino-2-hydroxy-3-(thiophen-2-yl)propanoyl)-L-prolinate], the results for the half-inhibitory concentration (IC50) against XPNPEP1 and on recombinant human PEPD were 65 µM and 2 µM, respectively.

With `COC(=O)[C@@H]1C[C@H](C)CN1C(=O)[C@@H](O)[C@H](N)CC(C)C` [CQ38, Methyl (2S,4S)-1-((2S,3R)-3-amino-2-hydroxy-5-methylhexanoyl)-4-methylpyrrolidine-2-carboxylate], the half-inhibitory concentration (IC50) against XPNPEP1 is 154 µM; at recombinant human PEPD, 2.2 µM.

`COC(=O)[C@@H]1CCCN1C(=O)[C@@H](O)[C@H](N)Cc1ccccc1` [CQ42, Methyl ((2S,3R)-3-amino-2-hydroxy-4-phenylbutanoyl)-L-prolinate]: the values for the IC50 on XPNPEP1 and on recombinant human PEPD were 241 µM and 7.6 µM, respectively.

With `CC(C)C[C@H](NC(=O)[C@@H]1CCCN1C(=O)[C@@H](O)[C@H](N)CC(C)C)C(=O)N(C)C` [CQ109, (S)-1-((2S,3R)-3-amino-2-hydroxy-5-methylhexanoyl)-N—((S)-1-(dimethylamino)-4-methyl-1-oxopentan-2-yl)pyrrolidine-2-carboxamide], the concentration for half-maximal inhibition (IC50) against XPNPEP1 worked out at 11 µM; at recombinant human PEPD it was 4 µM.

In the case of `COC(=O)[C@@H]1CCCN1C(=O)[C@@H](O)[C@H](N)c1ccc2ccoc2c1` [CQ69, Methyl ((2S,3R)-3-amino-3-(benzofuran-6-yl)-2-hydroxypropanoyl)-L-prolinate], the IC50 is 47 µM against XPNPEP1 and 1.8 µM on recombinant human PEPD.

For the compound `CC(C)C[C@H](NC(=O)[C@@H]1CCCN1C(=O)[C@@H](O)[C@H](N)CC(C)C)C(=O)NCCF` [CQ114, (S)-1-((2S,3R)-3-amino-2-hydroxy-5-methylhexanoyl)-N—((S)-1-((2-fluoroethyl)amino)-4-methyl-1-oxopentan-2-yl)pyrrolidine-2-carboxamide], the IC50 was determined as 7 µM against XPNPEP1 and 0.72 µM on recombinant human PEPD.

For the compound `CC(C)C[C@H](NC(=O)[C@@H]1CCCN1C(=O)[C@@H](O)[C@H](N)CC(C)C)C(N)=O` [CQ96, (S)-1-((2S,3R)-3-amino-2-hydroxy-5-methylhexanoyl)-N—((S)-1-amino-4-methyl-1-oxopentan-2-yl)pyrrolidine-2-carboxamide], the concentration for half-maximal inhibition (IC50) was found to be 10 µM on XPNPEP1 and 7.5 µM on recombinant human PEPD.

Turning to `CC(C)C[C@H](NC(=O)[C@@H]1CCCN1C(=O)[C@@H](O)[C@H](N)CC(C)C)C(=O)NCCc1ccc2ccccc2c1` [CQ117, (S)-1-((2S,3R)-3-amino-2-hydroxy-5-methylhexanoyl)-N—((S)-4-methyl-1-((2-(naphthalen-2-yl)ethyl)amino)-1-oxopentan-2-yl)pyrrolidine-2-carboxamide], the half-inhibitory concentration (IC50) was found to be 2.2 µM on XPNPEP1 and 7.6 µM on recombinant human PEPD.

`CC(C)C[C@H](NC(=O)[C@@H]1CCCN1C(=O)[C@@H](O)[C@H](N)CC(C)C)C(=O)N1CCC1` [CQ112, (S)-1-((2S,3R)-3-amino-2-hydroxy-5-methylhexanoyl)-N—((S)-1-(azetidin-1-yl)-4-methyl-1-oxopentan-2-yl)pyrrolidine-2-carboxamide]: the values for the IC50 against XPNPEP1 and on recombinant human PEPD were 95 µM and 66 µM, respectively.

On to `COC(=O)[C@@H]1CCCN1C(=O)[C@@H](O)[C@H](N)c1ccco1` [CQ68, Methyl ((2S,3S)-3-amino-3-(furan-2-yl)-2-hydroxypropanoyl)-L-prolinate], for which the IC50 against XPNPEP1 came out at 69 µM; at recombinant human PEPD it was 1.7 µM.

Consider `CC(C)C[C@H](NC(=O)[C@@H]1CCCN1C(=O)[C@@H](O)[C@H](N)CC(C)C)C(=O)NCCc1ccc(-c2ccccc2)cc1` [CQ119, (S)—N—((S)-1-((2-([1,1′-biphenyl]-4-yl)ethyl)amino)-4-methyl-1-oxopentan-2-yl)-1-((2S,3R)-3-amino-2-hydroxy-5-methylhexanoyl)pyrrolidine-2-carboxamide], for which the IC50 on XPNPEP1 amounted to 1.7 µM; at recombinant human PEPD, 14 µM.

As to `COC(=O)[C@@H]1CCCN1C(=O)[C@@H](O)[C@H](N)CCC(F)(F)F` [CQ43, Methyl ((2S,3R)-3-amino-6,6,6-trifluoro-2-hydroxyhexanoyl)-L-prolinate], the figures for the IC50 on XPNPEP1 and on recombinant human PEPD were 115 µM and 1.3 µM, respectively.

As to `CONC(=O)[C@H](CC(C)C)NC(=O)[C@@H]1CCCN1C(=O)[C@@H](O)[C@H](N)CC(C)C` [CQ111, (S)-1-((2S,3R)-3-amino-2-hydroxy-5-methylhexanoyl)-N—((S)-1-(methoxyamino)-4-methyl-1-oxopentan-2-yl)pyrrolidine-2-carboxamide], the results for the IC50 against XPNPEP1 and on recombinant human PEPD were 84 µM and 14 µM, respectively.

With `CC(C)C[C@H](NC(=O)[C@@H]1CCCN1C(=O)[C@@H](O)[C@H](N)CC(C)C)C(=O)NC(C)(C)C` [CQ115, (S)-1-((2S,3R)-3-amino-2-hydroxy-5-methylhexanoyl)-N—((S)-1-(tert-butylamino)-4-methyl-1-oxopentan-2-yl)pyrrolidine-2-carboxamide], the IC50 came out at 14 µM against XPNPEP1 and 3.7 µM on recombinant human PEPD.

Consider `CC(C)CCNC(=O)[C@H](CC(C)C)NC(=O)[C@@H]1CCCN1C(=O)[C@@H](O)[C@H](N)CC(C)C` [CQ110, (S)-1-((2S,3R)-3-amino-2-hydroxy-5-methylhexanoyl)-N—((S)-1-(isopentylamino)-4-methyl-1-oxopentan-2-yl)pyrrolidine-2-carboxamide], for which the results for the 50% inhibitory concentration (IC50) against XPNPEP1 and on recombinant human PEPD were 14 µM and 1.5 µM, respectively.

Turning to `COC(=O)[C@@H]1CC2(CC2)CN1C(=O)[C@@H](O)[C@H](N)CC(C)C` [CQ36, Methyl (S)-5-((2S,3R)-3-amino-2-hydroxy-5-methylhexanoyl)-5-azaspiro[2.4]heptane-6-carboxylate], the figures for the 50% inhibitory concentration (IC50) against XPNPEP1 and on recombinant human PEPD were 324 µM and 1 µM, respectively.

As to `CCCC[C@@H](N)[C@H](O)C(=O)N1CCC[C@H]1C(=O)OC` [CQ63], the IC50 on XPNPEP1 stood at 92 µM; at recombinant human PEPD, 0.53 µM.

Regarding `COC(=O)[C@@H]1CCCN1C(=O)[C@@H](O)[C@H](N)C(C)C` [CQ59, Methyl ((2S,3R)-3-amino-2-hydroxy-4-methylpentanoyl)-L-prolinate], the IC50 amounted to 190 µM against XPNPEP1 and 1.8 µM on recombinant human PEPD.

Take `CC(C)C[C@H](NC(=O)[C@@H]1CCCN1C(=O)[C@@H](O)[C@H](N)CC(C)C)C(=O)NS(=O)(=O)N(C)C` [CQ113, (S)-1-((2S,3R)-3-amino-2-hydroxy-5-methylhexanoyl)-N—((S)-1-((N,N-dimethylsulfamoyl)-amino)-4-methyl-1-oxopentan-2-yl)pyrrolidine-2-carboxamide]: the IC50 came out at 2.9 µM against XPNPEP1 and 0.56 µM on recombinant human PEPD.

Turning to `COC(=O)[C@@H]1C[C@H](F)CN1C(=O)[C@@H](O)[C@H](N)CC(C)C` [CQ35, Methyl (2S,4S)-1-((2S,3R)-3-amino-2-hydroxy-5-methylhexanoyl)-4-fluoropyrrolidine-2-carboxylate], the IC50 came to 74 µM on XPNPEP1 and 0.84 µM on recombinant human PEPD.
